Reference: patent US20140045832A1, “Insulin-Like Growth Factor-1 Receptor Inhibitors” (PIRAMAL ENTERPRISES LIMITED, priority 2011, published 2014)

molecular target: T1, human IGF-1R (Homo sapiens, UniProt P08069); test: In vitro IGF-1R kinase assay (HTRF); assay type: biochemical; settings: intracellular kinase domain GST fusion, ATP 20 μM, 1 hour at 23° C., read-out: IGFIR-Activity
T1 construct: IGFRK and IRK enzyme used for the assay was intracellular kinase domain of human IGF-1R and human IR; made in house
Description: The in vitro kinase assays using IGF-1R and IR kinase GST fusion proteins were conducted using a homogeneous time-resolved fluorescence (HTRF) format. […] The standard enzyme reaction buffer consisted of 50 mM Tris HCL (pH: 7.4), 1 mM EGTA, 10 mM MgCl2, 2 mM DTT, 0.01% Tween-20, IGF-1R/IR kinase enzyme, poly GT peptide substrate (Perkin Elmer [Ulight Glu-Tyr (4:1)]n) and ATP [concentration equivalent to Kmapp]. […] Briefly, 2.5 μL enzyme and 2.5 μL inhibitor was pre-incubated for 10 minutes at 23° C. followed by the addition of 2.5 μL of poly GT substrate (final concentration of 50 nM). Reaction was initiated with the addition of 2.5 μL of ATP (final concentration of 20 μM for IGF-1R assay and 10 μM for IR assay). After 1 hour incubation at 23° C., the kinase reaction was stopped with the addition of 5 μL EDTA (final concentration of 10 mM in 20 μL). Europium cryptate—labeled antiphosphotyrosine antibody PY20 (5 μL) was added (final concentration of 2 nM) and the mixture was allowed to equilibrate for 1 hour at 23° C. followed by reading the plate in an Envision plate reader. The intensity of light emission at 665 nm was directly proportional to the level of substrate phosphorylation. The IC50 values for inhibitors were determined by a four-parameter sigmoidal curve fit (Sigma plot or Graph pad).
IGFRK and IRK enzyme used for the assay was intracellular kinase domain of human IGF-1R and human IR cloned and expressed as GST fusion proteins using the baculovirus expression system and purified using glutathione—Sepharose column.

T1 sequence (P08069 999-1274 limits assumed): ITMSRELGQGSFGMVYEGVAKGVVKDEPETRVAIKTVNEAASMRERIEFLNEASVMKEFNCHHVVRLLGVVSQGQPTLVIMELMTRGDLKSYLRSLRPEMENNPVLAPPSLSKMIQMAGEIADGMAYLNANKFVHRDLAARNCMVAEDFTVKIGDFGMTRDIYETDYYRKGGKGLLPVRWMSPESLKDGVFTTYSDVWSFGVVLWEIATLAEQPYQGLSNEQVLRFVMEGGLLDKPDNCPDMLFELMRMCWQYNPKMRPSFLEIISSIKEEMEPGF

Row | SMILES | IC50 [nM]
1 | CC(C)(CC(=O)O)CC(=O)Nc1cc(Cl)cc2c(S(=O)(=O)N3CCO[C@H](COc4ccccc4)C3)c(C(N)=O)[nH]c12 [Compound 9, (S)-5-(2-carbamoyl-5-chloro-3-(2-(phenoxymethyl)morpholinosulfonyl)-1H-indol-7-ylamino)-3,3-dimethyl-5-oxopentanoic acid] | 55.8
2 | CC(C)(CC(=O)Nc1cc(Cl)cc2c(S(=O)(=O)N3CCO[C@H](COc4ccccc4)C3)c(C(N)=O)[nH]c12)C(=O)O [Compound 10, (S)-4-(2-carbamoyl-5-chloro-3-(2-(phenoxymethyl)morpholinosulfonyl)-1H-indol-7-ylamino)-2,2-dimethyl-4-oxobutanoic acid] | 29.9
3 | NC(=O)c1[nH]c2c(NC(=O)CCCC(=O)O)cc(Cl)cc2c1S(=O)(=O)N1CCO[C@H](COc2ccccc2)C1 [Compound 11, (S)-5-(2-carbamoyl-5-chloro-3-(2-(phenoxymethyl)morpholinosulfonyl)-1H-indol-7-ylamino)-5-oxopentanoic acid] | 10
4 | NC(=O)c1[nH]c2c(NC(=O)CCCC(=O)N3CCOCC3)cc(Cl)cc2c1S(=O)(=O)N1CCO[C@H](COc2ccccc2)C1 [Compound 13, (S)-5-chloro-7-(5-morpholino-5-oxopentanamido)-3-(2-(phenoxymethyl)morpholinosulfonyl)-1H-indole-2-carboxamide] | 7.6
5 | N#CCC(=O)Nc1cc(Cl)cc2c(S(=O)(=O)N3CCO[C@H](COc4ccccc4)C3)c(C(N)=O)[nH]c12 [Compound 14, (S)-5-chloro-7-(2-cyanoacetamido)-3-(2-(phenoxymethyl)morpholinosulfonyl)-1H-indole-2-carboxamide] | > 100
6 | NC(=O)CCNc1cc(Cl)cc2c(S(=O)(=O)N3CCO[C@H](COc4ccccc4)C3)c(C(N)=O)[nH]c12 [Compound 17, (S)-7-(3-amino-3-oxopropylamino)-5-chloro-3-(2-(phenoxymethyl)morpholinosulfonyl)-1H-indole-2-carboxamide] | 11.5
7 | NC(=O)c1[nH]c2c(NC3CCCCC3)cc(Cl)cc2c1S(=O)(=O)N1CCO[C@H](COc2ccccc2)C1 [Compound 21, (S)-5-chloro-7-(cyclohexylamino)-3-(2-(phenoxymethyl)morpholinosulfonyl)-1H-indole-2-carboxamide] | > 100
8 | NC(=O)c1[nH]c2c(NC3CCCC3)cc(Cl)cc2c1S(=O)(=O)N1CCO[C@H](COc2ccccc2)C1 [Compound 24, (S)-5-chloro-7-(cyclopentylamino)-3-(2-(phenoxymethyl)morpholinosulfonyl)-1H-indole-2-carboxamide] | > 100
9 | NC(=O)c1[nH]c2c(NCC3(N)CCCC3)cc(Cl)cc2c1S(=O)(=O)N1CCO[C@H](COc2ccccc2)C1 [Compound 25, (S)-7-((1-aminocyclopentyl)methylamino)-5-chloro-3-(2-(phenoxymethyl)morpholinosulfonyl)-1H-indole-2-carboxamide] | > 100
10 | NC(=O)c1[nH]c2c(NCc3ccc(C(=O)O)cc3)cc(Cl)cc2c1S(=O)(=O)N1CCO[C@H](COc2ccccc2)C1 [Compound 26, (S)-4-((2-carbamoyl-5-chloro-3-(2-(phenoxymethyl)morpholinosulfonyl)-1H-indol-7-ylamino)methyl)benzoic acid] | < 100
11 | NC(=O)c1[nH]c2c(NC3CCN(C(=O)NCC4CCCCC4)CC3)cc(Cl)cc2c1S(=O)(=O)N1CCO[C@H](COc2ccccc2)C1 [Compound 29, (S)-5-chloro-7-(1-(cyclohexylmethylcarbamoyl)piperidin-4-ylamino)-3-(2-(phenoxymethyl)morpholinosulfonyl)-1H-indole-2-carboxamide] | 32.9
12 | NC(=O)c1[nH]c2c(NC3CCNC3)cc(Cl)cc2c1S(=O)(=O)N1CCO[C@H](COc2ccccc2)C1 (stereo partly drawn) [Compound 32, 5-chloro-3-((S)-2-(phenoxymethyl)morpholinosulfonyl)-7-(pyrrolidin-3-ylamino)-1H-indole-2-carboxamide] | 48.7
13 | CCOC(=O)N1CCC(Nc2cc(F)cc3c(S(=O)(=O)N4CCO[C@H](COc5ccccc5)C4)c(C(N)=O)[nH]c23)CC1 [Compound 33, (S)-ethyl 4-(2-carbamoyl-5-fluoro-3-(2-(phenoxymethyl)morpholinosulfonyl)-1H-indol-7-ylamino)piperidine-1-carboxylate] | < 100
14 | NC(=O)c1[nH]c2c(NC3CCNCC3)cc(Cl)cc2c1S(=O)(=O)N1CCO[C@H](COc2ccccc2)C1 [Compound 36, (S)-5-chloro-3-(2-(phenoxymethyl)morpholinosulfonyl)-7-(piperidin-4-ylamino)-1H-indole-2-carboxamide] | 22

Continued, values first:

Row | IC50 [nM] | SMILES
15 | 6.6 | NC(=O)c1[nH]c2c(NC(=O)CCC(=O)O)cc(Cl)cc2c1S(=O)(=O)N1CCO[C@H](COc2ccccc2)C1 [Compound 8, (S)-4-(2-carbamoyl-5-chloro-3-(2-(phenoxymethyl)morpholinosulfonyl)-1H-indol-7-ylamino)-4-oxobutanoic acid]
16 | < 100 | CCOC(=O)CCCC(=O)Nc1cc(Cl)cc2c(S(=O)(=O)N3CCO[C@H](COc4ccccc4)C3)c(C(N)=O)[nH]c12 [Compound 15, (S)-ethyl 5-(2-carbamoyl-5-chloro-3-(2-(phenoxymethyl)morpholinosulfonyl)-1H-indol-7-ylamino)-5-oxopentanoate]
17 | 2.6 | NC(=O)c1[nH]c2c(NCCC(=O)O)cc(Cl)cc2c1S(=O)(=O)N1CCO[C@H](COc2ccccc2)C1 [Compound 16, (S)-3-(2-carbamoyl-5-chloro-3-(2-(phenoxymethyl)morpholinosulfonyl)-1H-indol-7-ylamino)propanoic acid]
18 | > 100 | CCOC(=O)CCCNc1cc(Cl)cc2c(S(=O)(=O)N3CCO[C@H](COc4ccccc4)C3)c(C(N)=O)[nH]c12 [Compound 18, (S)-ethyl 4-(2-carbamoyl-5-chloro-3-(2-(phenoxymethyl)morpholinosulfonyl)-1H-indol-7-ylamino)butanoate]
19 | > 100 | NC(=O)c1[nH]c2c(NCC3CCCCC3)cc(Cl)cc2c1S(=O)(=O)N1CCO[C@H](COc2ccccc2)C1 [Compound 22, (S)-5-chloro-7-(cyclohexylmethylamino)-3-(2-(phenoxymethyl)morpholinosulfonyl)-1H-indole-2-carboxamide]
20 | 9.8 | CC(C)(C)NC(=O)N1CCC(Nc2cc(Cl)cc3c(S(=O)(=O)N4CCO[C@H](COc5ccccc5)C4)c(C(N)=O)[nH]c23)CC1 [Compound 27, (S)-7-(1-(tert-butylcarbamoyl)piperidin-4-ylamino)-5-chloro-3-(2-(phenoxymethyl)morpholinosulfonyl)-1H-indole-2-carboxamide]
21 | > 100 | NC(=O)c1[nH]c2c(NCc3ccc(F)cc3)cc(Cl)cc2c1S(=O)(=O)N1CCO[C@H](COc2ccccc2)C1 [Compound 30, (S)-5-chloro-7-(4-fluorobenzylamino)-3-(2-(phenoxymethyl)morpholinosulfonyl)-1H-indole-2-carboxamide]
22 | 39 | CC(C)CN1CCC(Nc2cc(Cl)cc3c(S(=O)(=O)N4CCO[C@H](COc5ccccc5)C4)c(C(N)=O)[nH]c23)CC1 [Compound 31, (S)-5-chloro-7-(1-isobutylpiperidin-4-ylamino)-3-(2-(phenoxymethyl)morpholinosulfonyl)-1H-indole-2-carboxamide]
23 | 1.3 | NC(=O)c1[nH]c2c(NC(=S)Nc3ccccc3)cc(Cl)cc2c1S(=O)(=O)N1CCO[C@H](COc2ccccc2)C1 [Compound 35, (S)-5-chloro-3-(2-(phenoxymethyl)morpholinosulfonyl)-7-(3-phenylthioureido)-1H-indole-2-carboxamide]

molecular target: T2, CYP3A4 (Homo sapiens, UniProt P08684); test: CYP inhibition fluorescence assay (rhCYP450, Vivid Invitrogen kit); assay type: in vitro ADME; settings: recombinant human CYP3A4, 10 μM compound, read-out: % inhibition of CYP 3A4 at 10 μM
T2 construct: purchased Invitrogen (Vivid screening kits)
Description: The % inhibition @ 10 μM data was generated from an rhCYP450/fluorescence assay according to the Vivid Invitrogen screening kits. The compounds were screened against CYP 3A4 isoform because CYP3A4 is responsible for the metabolism of approximately 50-60% of clinical drugs. The lower the percentage inhibition, the lower the CYP450 inhibitory liability of that specific compound.

T2 sequence (P08684 whole entry): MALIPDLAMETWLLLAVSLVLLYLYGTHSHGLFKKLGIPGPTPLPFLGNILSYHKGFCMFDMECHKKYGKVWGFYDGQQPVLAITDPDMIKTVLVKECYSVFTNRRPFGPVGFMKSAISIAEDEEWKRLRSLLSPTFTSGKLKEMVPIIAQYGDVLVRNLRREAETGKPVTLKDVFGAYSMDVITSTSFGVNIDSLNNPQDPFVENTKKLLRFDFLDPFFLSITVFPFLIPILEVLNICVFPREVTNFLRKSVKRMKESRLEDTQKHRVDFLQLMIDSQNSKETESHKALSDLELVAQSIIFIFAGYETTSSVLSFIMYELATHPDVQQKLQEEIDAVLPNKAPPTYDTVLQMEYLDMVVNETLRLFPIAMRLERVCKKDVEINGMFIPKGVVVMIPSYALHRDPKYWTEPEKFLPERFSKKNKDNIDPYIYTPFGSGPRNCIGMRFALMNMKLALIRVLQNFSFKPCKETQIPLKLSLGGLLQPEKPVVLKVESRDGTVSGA

Row | SMILES | inhibition at 10 µM [%]
24 | NC(=O)c1[nH]c2c(NC(=O)CCCC(=O)O)cc(Cl)cc2c1S(=O)(=O)N1CCO[C@H](COc2ccccc2)C1 [Compound 11, (S)-5-(2-carbamoyl-5-chloro-3-(2-(phenoxymethyl)morpholinosulfonyl)-1H-indol-7-ylamino)-5-oxopentanoic acid] | 15
25 | NC(=O)c1[nH]c2c(NC(=O)CCCC(=O)N3CCOCC3)cc(Cl)cc2c1S(=O)(=O)N1CCO[C@H](COc2ccccc2)C1 [Compound 13, (S)-5-chloro-7-(5-morpholino-5-oxopentanamido)-3-(2-(phenoxymethyl)morpholinosulfonyl)-1H-indole-2-carboxamide] | 46

Other lines, results leading:

Row | inhibition at 10 µM [%] | SMILES
26 | 0 | NC(=O)c1[nH]c2c(NC(=O)CCC(=O)O)cc(Cl)cc2c1S(=O)(=O)N1CCO[C@H](COc2ccccc2)C1 [Compound 8, (S)-4-(2-carbamoyl-5-chloro-3-(2-(phenoxymethyl)morpholinosulfonyl)-1H-indol-7-ylamino)-4-oxobutanoic acid]
27 | < 40 | NC(=O)c1[nH]c2c(NC(=S)Nc3ccccc3)cc(Cl)cc2c1S(=O)(=O)N1CCO[C@H](COc2ccccc2)C1 [Compound 35, (S)-5-chloro-3-(2-(phenoxymethyl)morpholinosulfonyl)-7-(3-phenylthioureido)-1H-indole-2-carboxamide]
